What was measured:
[1] = molecular target: human liver Arginase (Homo sapiens, UniProt P05089); settings: published value in literature; substrate arginine; cited from earlier work
[2] = molecular target: T1, pegylated Arginase (recombinant human Arginase I, SEQ ID NO: 3, modified with mPEG-SPA, MW 5,000) (Homo sapiens, UniProt P05089); assay: Arginase activity, kinetic properties (method of Ikemoto et al. 1990); format: biochemical; settings: substrate arginine
T1 sequence (P05089 1-322): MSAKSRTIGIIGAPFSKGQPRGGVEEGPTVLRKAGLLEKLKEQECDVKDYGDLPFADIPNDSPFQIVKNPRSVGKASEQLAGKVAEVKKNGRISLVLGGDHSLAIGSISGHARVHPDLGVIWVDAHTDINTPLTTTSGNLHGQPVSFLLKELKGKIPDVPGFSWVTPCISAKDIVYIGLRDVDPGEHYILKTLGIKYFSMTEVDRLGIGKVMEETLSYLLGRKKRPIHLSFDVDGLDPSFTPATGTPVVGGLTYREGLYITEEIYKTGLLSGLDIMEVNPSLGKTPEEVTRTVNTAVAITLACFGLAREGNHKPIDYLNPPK
Description: Moreover, about 1 mM of Mn^2+ ions and a temperature of 30-50 degree C are required to achieve maximum activity for the native Arginase.

[3] = molecular target: T2, recombinant human Arginase I, native (non-pegylated), 6xHis-tagged, B. subtilis-expressed, SEQ ID NO: 3 (Homo sapiens, UniProt P05089); assay: as above; format: biochemical; settings: substrate arginine
T2 sequence (P05089 1-322): T1 sequence (P05089 1-322)

## N=C(N)NCCC[C@H](N)C(=O)O [arginine]
[1]
  Km: 2600 µM
[2]
  Km: 2900 ± 300 µM
  Vmax: 360 µmol urea min^-1 mM^-1
[3]
  Km: 1900 ± 700 µM
  Vmax: 518 µmol urea min^-1. mM^-1
  kcat: 2.0 ± 0.5 s⁻¹
